Source: patent US9051296B2, “Aryl carboxamide derivatives as TTX-S blockers” (RaQualia Pharma Inc., priority 2009, dated 2015)
pIC50: −log10 of the molar value. Where two headings read alike, the source gives them in different places.

Experiments:
[1] = target: T1, human Nav1.7 channels (Homo sapiens, UniProt Q15858); assay: FRET Assay (Method A), human Nav1.7; assay type: cell-based
T1 construct: expressed in transfected cells; host or cells: CHO
Procedure: (§1) The ability of the aryl substituted carboxamid derivatives of the formula (I) to inhibit the NaV1.3, Nav1.7 and Nav1.5 channels was measured by Fluorescence Resonance Energy Transfer (FRET) assay and electrophysiology assay described below.
(§2) This screen was used to determine the effects of compounds on human NaV1.3, human Nav1.7, and human Nav1.5 channels, utilising the cell imaging technology by Hamamatsu Photonics's Functional Drug Screening System (FDSS). The change of membrane potential was monitored with fluorescent membrane potential dye pair, oxonol (DiSBAC2(3)) and coumarin (CC2-DMPE), using FRET technology.
CHO cells expressing human NaV1.7 channels were grown in T225 flasks, in a 5% CO2 humidified incubator to about 80% confluence. Media composition consisted of HAM/F12 with Glutamax I, 10% FCS, 100 units/ml Penicillin and 100 microgram/ml Hygromycin.
Protocol: • Seeded each cell lines (1.5×10^4 cells/well) into poly-D-lysine coated 384-well plates prior to experimentation. • Incubated at 37° C. in 5% CO2 for 24 hours. • Washed each well with buffer #1 (140 mM NaCl, 4.5 mM KCl, 10 mM D-Glucose, 2 mM CaCl2, 1 mM MgCl2, 10 mM HEPES, pH 7.4 adjusted with NaOH) twice. • Added 1st loading solution containing 5 microM CC2-DMPE and 0.02% Pluronic F-127 in buffer #1. • Incubated the plate at room temperature in dark for 0.5 hours. • Washed each well with buffer #2 (160 mM Choline, 10 mM D-Glucose, 0.1 mM CaCl2, 1 mM MgCl2, 10 mM HEPES, pH 7.4 adjusted with KOH) twice. • Added 2nd loading solution containing 15 microM DiSBAC2(3), 0.5 mM VABSC-1, 10 microM veratridine and 0.004% Pluronic F-127 in buffer #2. • Added compound solutions into the assay plate for 30 minutes under the dark at room temperature. • Measured the activity by FDSS.
(§3) The data were analyzed and reported as normalized ratios of intensities measured in the 465 nm and 575 nm channels. […]
(§4) “FI465B”=the mean of fluorescence intensity as baseline (before Na+ ligand addition) at 465 nm
“FI575B”=the mean of fluorescence intensity as baseline (before Na+ ligand addition) at 575 nm […]

[2] = target: T2, Human HERG (Homo sapiens, UniProt Q12809); assay: Human dofetilide binding assay
T2 construct: expressed in transfected cells; host or cells: HEK293S (membrane homogenate)
T2 sequence (Q12809 whole entry): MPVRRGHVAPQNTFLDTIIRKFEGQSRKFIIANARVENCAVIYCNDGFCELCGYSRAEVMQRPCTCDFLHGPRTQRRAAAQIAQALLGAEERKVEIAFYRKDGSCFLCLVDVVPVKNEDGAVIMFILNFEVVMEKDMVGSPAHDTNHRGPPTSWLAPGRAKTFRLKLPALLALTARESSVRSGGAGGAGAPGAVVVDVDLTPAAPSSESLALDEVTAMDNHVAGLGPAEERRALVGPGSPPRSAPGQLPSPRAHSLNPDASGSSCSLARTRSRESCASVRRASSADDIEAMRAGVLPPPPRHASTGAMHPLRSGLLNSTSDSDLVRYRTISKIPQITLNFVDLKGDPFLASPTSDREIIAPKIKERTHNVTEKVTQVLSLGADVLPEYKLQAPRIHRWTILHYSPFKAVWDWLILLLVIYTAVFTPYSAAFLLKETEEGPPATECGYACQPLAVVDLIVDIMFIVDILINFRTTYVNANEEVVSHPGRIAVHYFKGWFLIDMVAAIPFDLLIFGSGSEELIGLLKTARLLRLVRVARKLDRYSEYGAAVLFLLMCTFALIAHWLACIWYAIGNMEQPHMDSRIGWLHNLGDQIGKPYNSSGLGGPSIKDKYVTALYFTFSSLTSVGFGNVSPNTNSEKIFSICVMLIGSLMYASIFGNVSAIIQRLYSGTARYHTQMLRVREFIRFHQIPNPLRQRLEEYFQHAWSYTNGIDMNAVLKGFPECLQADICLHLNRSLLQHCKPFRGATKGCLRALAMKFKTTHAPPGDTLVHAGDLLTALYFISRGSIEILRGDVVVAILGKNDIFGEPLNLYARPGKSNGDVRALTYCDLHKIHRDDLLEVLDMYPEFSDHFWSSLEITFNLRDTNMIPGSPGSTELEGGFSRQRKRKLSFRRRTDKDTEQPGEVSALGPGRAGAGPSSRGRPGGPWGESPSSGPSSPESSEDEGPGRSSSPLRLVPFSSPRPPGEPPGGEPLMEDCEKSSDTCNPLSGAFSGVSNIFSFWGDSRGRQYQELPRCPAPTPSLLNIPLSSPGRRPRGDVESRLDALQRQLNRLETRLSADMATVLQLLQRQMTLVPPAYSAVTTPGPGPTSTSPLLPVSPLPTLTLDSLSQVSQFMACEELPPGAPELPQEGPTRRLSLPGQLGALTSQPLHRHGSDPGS
Procedure: Human Dofetilide Binding Assay
Human HERG transfected HEK293S cells were prepared and grown in-house. The collected cells were suspended in 50 mM Tris-HCl (pH 7.4 at 4° C.) and homogenized using a hand held Polytron PT 1200 disruptor set at full power for 20 sec on ice. The homogenates were centrifuged at 48,000×g at 4° C. for 20 min. The pellets were then resuspended, homogenized, and centrifuged once more in the same manner. The final pellets were resuspended in an appropriate volume of 50 mM Tris-HCl, 10 mM KCl, 1 mM MgCl2 (pH 7.4 at 4° C.), homogenized, aliquoted and stored at −80° C. until use. An aliquot of membrane fractions was used for protein concentration determination using BCA protein assay kit (PIERCE) and ARVOsx plate reader (Wallac). Binding assays were conducted in a total volume of 30 microL in 384-well plates. The activity was measured by PHERAstar (BMG LABTECH) using fluorescence polarization technology. Ten microL of test compounds were incubated with 10 microL of fluorescence ligand (6 nM Cy3B tagged dofetilide derivative) and 10 microL of membrane homogenate (6 microg protein) for 120 minutes at room temperature. Nonspecific binding was determined by 10 microM E4031 at the final concentration.

[3] = target: T3, human NaV1.3 channels (Homo sapiens, UniProt Q9NY46); assay: FRET Assay (Method A), human NaV1.3; assay type: cell-based; conditions: read-out: against Nav1.3 in FRET Assay (Method A)
T3 construct: expressed in transfected cells; host or cells: HEK293
T3 sequence (Q9NY46 whole entry): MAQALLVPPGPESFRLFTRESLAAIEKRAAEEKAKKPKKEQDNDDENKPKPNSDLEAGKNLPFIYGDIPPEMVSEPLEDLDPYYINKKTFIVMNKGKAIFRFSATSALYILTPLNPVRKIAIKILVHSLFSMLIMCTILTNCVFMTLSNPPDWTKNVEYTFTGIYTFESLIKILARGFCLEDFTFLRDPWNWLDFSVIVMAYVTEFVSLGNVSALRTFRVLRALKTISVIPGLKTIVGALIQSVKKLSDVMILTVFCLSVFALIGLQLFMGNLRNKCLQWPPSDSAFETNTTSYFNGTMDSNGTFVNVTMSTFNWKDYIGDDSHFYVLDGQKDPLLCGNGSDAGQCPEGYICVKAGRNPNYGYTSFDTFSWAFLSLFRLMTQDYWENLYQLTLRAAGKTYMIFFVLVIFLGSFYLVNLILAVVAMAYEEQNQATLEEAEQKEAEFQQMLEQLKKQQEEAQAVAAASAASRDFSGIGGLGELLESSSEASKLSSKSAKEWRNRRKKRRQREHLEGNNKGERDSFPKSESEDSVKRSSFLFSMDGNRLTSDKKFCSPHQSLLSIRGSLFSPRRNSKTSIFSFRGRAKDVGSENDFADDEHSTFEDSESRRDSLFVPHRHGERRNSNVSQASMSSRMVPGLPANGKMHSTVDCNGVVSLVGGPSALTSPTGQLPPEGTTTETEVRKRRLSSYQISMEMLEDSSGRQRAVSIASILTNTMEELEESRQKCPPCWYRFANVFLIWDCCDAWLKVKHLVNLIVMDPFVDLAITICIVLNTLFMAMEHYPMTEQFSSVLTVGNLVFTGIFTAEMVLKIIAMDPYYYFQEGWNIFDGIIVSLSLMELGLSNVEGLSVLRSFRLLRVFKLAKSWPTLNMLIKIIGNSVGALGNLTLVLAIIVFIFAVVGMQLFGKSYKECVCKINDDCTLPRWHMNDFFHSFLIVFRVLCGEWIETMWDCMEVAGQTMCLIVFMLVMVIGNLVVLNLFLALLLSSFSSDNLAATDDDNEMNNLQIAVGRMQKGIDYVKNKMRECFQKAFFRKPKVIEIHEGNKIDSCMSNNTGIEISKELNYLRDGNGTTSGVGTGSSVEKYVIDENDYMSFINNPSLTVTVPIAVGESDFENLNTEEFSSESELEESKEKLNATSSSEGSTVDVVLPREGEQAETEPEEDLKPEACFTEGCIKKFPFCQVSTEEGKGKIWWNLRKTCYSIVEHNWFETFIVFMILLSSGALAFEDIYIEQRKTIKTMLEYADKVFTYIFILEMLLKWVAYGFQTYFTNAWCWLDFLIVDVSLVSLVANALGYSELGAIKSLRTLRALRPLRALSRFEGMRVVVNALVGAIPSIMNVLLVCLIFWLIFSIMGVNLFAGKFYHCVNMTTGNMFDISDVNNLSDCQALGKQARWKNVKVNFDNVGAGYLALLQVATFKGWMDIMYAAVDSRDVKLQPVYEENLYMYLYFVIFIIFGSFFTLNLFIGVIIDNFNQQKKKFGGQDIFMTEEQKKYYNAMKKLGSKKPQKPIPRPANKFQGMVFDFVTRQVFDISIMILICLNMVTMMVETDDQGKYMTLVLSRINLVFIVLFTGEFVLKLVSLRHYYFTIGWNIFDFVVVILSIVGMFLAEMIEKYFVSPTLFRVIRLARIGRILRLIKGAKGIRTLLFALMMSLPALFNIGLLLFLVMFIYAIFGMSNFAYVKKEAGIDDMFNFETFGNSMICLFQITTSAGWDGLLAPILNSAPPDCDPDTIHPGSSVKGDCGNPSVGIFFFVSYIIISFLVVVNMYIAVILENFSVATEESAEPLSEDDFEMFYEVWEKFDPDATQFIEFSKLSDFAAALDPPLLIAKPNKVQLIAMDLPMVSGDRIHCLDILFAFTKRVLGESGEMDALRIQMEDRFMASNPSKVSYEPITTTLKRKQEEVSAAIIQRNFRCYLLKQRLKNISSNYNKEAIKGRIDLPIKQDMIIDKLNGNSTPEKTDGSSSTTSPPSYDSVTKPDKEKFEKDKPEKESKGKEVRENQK
Procedure: as §1
as §2, with “technology. […]” for “technology.”
as §3, §4
“FI575B”=the mean of fluorescence intensity as baseline (before Na+ ligand addition) at 575 nm
“FI465Max”=maximum fluorescence intensity at 465 nm after Na+ stimulation
“FI575 Min”=minimum fluorescence intensity at 575 nm after Na+ stimulation
This analysis was performed using a computerized specific program designed for FDSS generated data. Fluorescence ratio values were plotted using XLfit to determine an IC50 value for each compound.

[4] = Table 5, method A or B not stated, read-out: IC50 in the Nav1.7 FRET Assay

T1 sequence (Q15858 whole entry): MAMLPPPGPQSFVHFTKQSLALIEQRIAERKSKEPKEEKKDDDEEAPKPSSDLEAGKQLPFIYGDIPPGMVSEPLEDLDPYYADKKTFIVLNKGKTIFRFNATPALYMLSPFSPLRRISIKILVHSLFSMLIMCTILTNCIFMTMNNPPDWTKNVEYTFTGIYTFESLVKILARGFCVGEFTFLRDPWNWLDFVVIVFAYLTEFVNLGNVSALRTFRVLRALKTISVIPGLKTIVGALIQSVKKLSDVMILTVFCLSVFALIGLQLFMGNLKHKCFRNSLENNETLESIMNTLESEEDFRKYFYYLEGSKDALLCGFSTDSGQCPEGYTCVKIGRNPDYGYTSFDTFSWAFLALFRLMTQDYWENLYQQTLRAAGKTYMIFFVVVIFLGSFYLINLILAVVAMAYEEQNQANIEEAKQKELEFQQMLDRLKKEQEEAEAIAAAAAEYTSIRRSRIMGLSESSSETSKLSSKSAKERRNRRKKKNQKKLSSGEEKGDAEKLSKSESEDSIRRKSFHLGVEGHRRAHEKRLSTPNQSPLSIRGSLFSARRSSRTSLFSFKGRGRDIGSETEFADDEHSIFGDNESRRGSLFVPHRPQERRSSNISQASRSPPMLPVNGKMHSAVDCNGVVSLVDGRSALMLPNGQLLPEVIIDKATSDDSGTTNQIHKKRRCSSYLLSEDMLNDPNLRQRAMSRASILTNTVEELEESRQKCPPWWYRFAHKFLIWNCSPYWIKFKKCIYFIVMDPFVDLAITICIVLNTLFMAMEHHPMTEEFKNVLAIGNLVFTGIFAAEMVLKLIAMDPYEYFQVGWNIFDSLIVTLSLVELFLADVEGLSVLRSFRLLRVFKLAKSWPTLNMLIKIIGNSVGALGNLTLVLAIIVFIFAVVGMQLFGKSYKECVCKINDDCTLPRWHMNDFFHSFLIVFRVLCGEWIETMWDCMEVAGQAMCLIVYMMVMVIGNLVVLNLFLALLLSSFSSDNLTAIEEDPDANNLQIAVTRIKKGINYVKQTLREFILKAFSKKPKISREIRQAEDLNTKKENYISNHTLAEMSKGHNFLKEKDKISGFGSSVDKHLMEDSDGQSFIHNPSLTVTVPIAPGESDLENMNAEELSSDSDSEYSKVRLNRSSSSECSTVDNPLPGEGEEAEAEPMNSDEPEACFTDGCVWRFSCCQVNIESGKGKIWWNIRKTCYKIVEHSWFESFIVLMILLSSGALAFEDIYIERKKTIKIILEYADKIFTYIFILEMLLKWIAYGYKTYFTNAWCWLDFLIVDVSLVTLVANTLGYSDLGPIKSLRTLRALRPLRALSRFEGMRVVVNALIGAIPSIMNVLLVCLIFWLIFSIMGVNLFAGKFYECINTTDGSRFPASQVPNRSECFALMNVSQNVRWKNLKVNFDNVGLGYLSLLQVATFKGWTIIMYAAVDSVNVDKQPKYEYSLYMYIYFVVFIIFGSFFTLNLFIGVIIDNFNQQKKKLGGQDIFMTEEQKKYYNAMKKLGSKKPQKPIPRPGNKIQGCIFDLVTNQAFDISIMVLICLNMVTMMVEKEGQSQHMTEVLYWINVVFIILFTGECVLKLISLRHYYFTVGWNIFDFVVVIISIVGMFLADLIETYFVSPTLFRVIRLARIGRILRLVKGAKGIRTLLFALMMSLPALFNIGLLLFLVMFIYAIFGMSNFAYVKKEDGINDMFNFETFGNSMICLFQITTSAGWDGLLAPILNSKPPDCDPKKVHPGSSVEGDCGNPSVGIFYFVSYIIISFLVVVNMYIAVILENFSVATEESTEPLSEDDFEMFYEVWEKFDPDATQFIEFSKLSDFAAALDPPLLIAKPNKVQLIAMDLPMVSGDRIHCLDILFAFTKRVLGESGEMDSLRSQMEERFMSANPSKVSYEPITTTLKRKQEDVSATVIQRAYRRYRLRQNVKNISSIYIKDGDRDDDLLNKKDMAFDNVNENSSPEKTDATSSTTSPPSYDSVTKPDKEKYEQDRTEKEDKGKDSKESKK

| pIC50 [1, 4] | pIC50 ([1]; read-out: against Nav1.7 in FRET Assay (Method A)) | pIC50 [3] | SMILES | pIC50 [2] |
| --- | --- | --- | --- | --- |
| 6.44 | – | – | O=C(c1cnc2ccccc2c1)N1CCC(Oc2ccc(Cl)cc2)CC1 [Example 10, (4-(4-chlorophenoxy)piperidin-1-yl)(quinolin-3-yl) methanone] | 5.10 |
| – | 4.82 | < 4.52 | O=c1[nH]ccnc1CN1CCC(COc2ccccc2)CC1 [Example 198 in WO 2003/084948, 3-((4-(phenoxymethyl)piperidin-1-yl)methyl)pyrazin-2(1H)-one, reference compound] | – |
| 6.33 | – | – | Clc1ccc(OC2CCN(Cc3cnc4ccccc4c3)CC2)cc1 [Example 726] | 6.55 |
